The record followed here is US6916915B1, “Stressor regulated genes” (Duke University, priority 1998, dated 2005).

In this experiment the test system is C. elegans. The experiment can be described thus: Northern blot analysis of steady-state mRNA levels after cadmium exposure. The conditions noted are these: for Fold-change in mRNA levels following cadmium exposure, VL1 (Northern blot): clone VL1 (mtl-1). It counts as in vivo, Caenorhabditis elegans. How it is done:
Growth and isolation of C. elegans—The N2 strain of C. elegans was grown in liquid S medium (0.1M NaCl, 50 mM potassium phosphate, pH 6.0, 5 μg/ml cholesterol, 10 mM potassium citrate, 3 mM CaCl2, 3 mM MgCl2, 50 μM EDTA, 25 μM FeSO4, 10 μM MnCl2, 10 μM ZnSO4 and 1 μM CuSO4) using E. coli OP50 as a food source (Brenner, S. (1974) Genetics 77, 71-94). In experiments where nematodes were exposed to cadmium, the medium was supplemented with 100 μM CdCl2 (Freedman, J. H. et al. (1993) J. Biol. Chem. 268, 2554-2564). C. elegans were grown in the presence of metal for 8 h or 24 h at ˜20° C. Nematodes were then collected following centrifugation at 800×g for 5 min. Pellets were suspended in 5 mM NaCl containing 35% sucrose (final concentration) and viable nematodes were collected from the top of the solution following centrifugation at 1000×g for 5 min at 4° C. Nematodes were then washed three times by suspension in M9 buffer (22 mM KH2PO4, 42 mM Na2HPO4, 85 mM NaCl, 1 mM MgSO4) followed by sedimentation at 800×g. Washed nematode pellets were finally suspended in a small volume of M9 buffer, rapidly frozen in liquid nitrogen and stored at −80° C.
RNA isolation—Total RNA was isolated from mix-stage populations of C. elegans exposed to 100 μM CdCl2 for 8 h and 24 h and control, non-exposed nematodes. Frozen worms were first ground into a fine powder using a liquid nitrogen-cooled mortar and pestle. Powdered C. elegans (200 mg) were then homogenized in 2 ml of TRIzol (GIBCO/BRL). RNA was then collected from the aqueous phase following the addition of chloroform, precipitated by adding isopropyl alcohol and then air-dried. The dried RNA pellet was then dissolved in diethyl pyrocarbonate (DEPC)-treated water. For some experiments, poly(A^+) RNA was subsequently isolated using the Poly(A) Tract System following manufacturer's instructions (Promega).
Northern Blot Analysis-Samples of total RNA (20 μg) or poly(A^+) RNA (2 μg) were denatured in a 2.2M formaldehyde/50% (v/v) formamide buffer and then subjected to denaturing gel electrophoresis on a 1.5% agarose/2.2M formaldehyde gel. Size-fractionated RNAs were then transferred to Nytran membrane (Schleicher and Schuell). Membranes were probed with ^32P-labeled cDNA fragments of the differentially expressed mRNAs. cDNAs to be used as probes were generated by the PCR from the cloned DNA fragments recovered from differential display gels. cDNAs were labeled with [α-^32]dCTP (Amersham) by random-primed labeling. Membranes were hybridized in 6 ×SSC (1×SSC=0.15M sodium chloride, 15 mM sodium citrate, pH 7.0), 1.25× Denhardt's solution, 0.5% sodium dodecyl sulfate (SDS), 300 ng denatured sonicated salmon sperm DNA and heat-denatured probe at 42° C. for 16 h. Following hybridization, membranes were washed at a high stringency of 50° C. for 30 min in 0.1×SSC/0.1% SDS. The amount of probe hybridizing to the RNA was determined by PhosphorImager analysis (Molecular Dynamic System) . After images were obtained, membranes were incubated at 95° C. for 1 h in 0.1% SDS to remove the bound probe. They were then hybridized with a ^32P-labeled C. elegans myosin light-chain probe, which served as a loading control (Freedman, J. H. et al. (1993) J. Biol. Chem. 268, 2554-2564). As a positive control, membranes were also hybridized to a ^32P-labeled C. elegans metallothonein-2 (mtl-2) cDNA probe (Freedman, J. H. et al. (1993) J. Biol. Chem. 268, 2554-2564). Quantification of radioactivity was performed using the ImageQuant program (Molecular Dynamic System). Steady-state levels of mRNA expression were all normalized to that of the constitutively expressed myosin light-chain mRNAs (Freedman, J. H. et al. (1993) J. Biol. Chem. 268, 2554-2564; Cummins, C. et al. (198B) Mol. Cell. Biol 8, 5334-5349).

Values joined by “and” are separate entries in the source; they are usually repeats but may differ in a detail not shown here. Equal values may be shown once.

Consider `[Cl][Cd][Cl]` [cadmium, CdCl2], for which the “steady-state level of mtl-2 mRNA” value (100 μM CdCl2 for 24 h vs control C. elegans) was “increased”. For the same compound, the “Fold-change in mRNA levels following cadmium exposure, DDRT16 (Northern blot)” value (clone DDRT16, 24 hours, 100 μM CdCl2, value in parenthesis, by Northern blot) amounted to 3.5 fold. For the same compound, the “Fold-change in mRNA levels following cadmium exposure, VL1 (Northern blot)” value by setting is: (8 hours, 100 μM CdCl2, value in parenthesis, by Northern blot) “(4.7) fold”; (24 hours, 100 μM CdCl2, value in parenthesis, by Northern blot) “(5.2) fold”. The “Fold-change in mRNA levels following cadmium exposure, VL19 (Northern blot)” value (clone VL19, 24 hours, 100 μM CdCl2, value in parenthesis, by Northern blot) is given as 2.3 fold. Also, under “clone VL21, 24 hours, 100 μM CdCl2, value in parenthesis, by Northern blot”, the “Fold-change in mRNA levels following cadmium exposure, VL21 (Northern blot)” value was 2 fold and 2.0 fold.
